The record followed here is PMC11739978, “Next-Generation Carbazole-Linked 1,2,4-Triazole-Thione Derivatives: Strategic Design, Synthesis, Molecular Docking, and Evaluation of Antidiabetic Potential” (ACS Omega, 2024).

The structures appear in SMILES notation. Values joined by “and” are separate entries in the source; they are usually repeats but may differ in a detail not shown here. Equal values may be shown once.

Series [1] can be described thus: MTS cytotoxicity assay on LX-2 normal hepatic cells. Conditions: human, LX-2 hepatic stellate cells. A general note: Formazan colour is commonly taken as a measure of viable cells.
Another series has as its system LX-2 cells. The series is described as above. Conditions: LX-2, 100 μM.
Series [2] deals with STZ-induced diabetic mice. The series can be described thus: In vivo hypoglycemic effect in mice with STZ-induced diabetes. Conditions: group III STZ-diabetic mice, fasting. The method, then: The Carbazole-triazole derivatives were tested in a laboratory setting to determine their ability to inhibit the enzyme α-amylase and α-glucosidase. […] Therefore, C5f was selected for further investigation of its ability to lower blood sugar levels in an in vivo study. This investigation sought to reveal the effect of C5f on blood glucose levels in mice with diabetes caused by Streptozotocin (STZ). This compound has a significant hypoglycemic effect in STZ-diabetic mice, similar to the effect reported in the control group (mice that were not treated), as shown in Figure 3. The mice were divided into three groups: group I: negative control mice without any treatment; Group II: positive control mice with STZ treatment only; and Group III: mice treated with STZ and then with our compound C5f.
The investigations conducted on mice adhered strictly to the protocols established by the Association for Assessment and Accreditation of Laboratory Animal Care International. The Institutional Review Board of the Animal House and Use Committee at An-Najah National University granted full ethical approval for the study (approval number: Med. September. 2022/2A). […]
The experiment entailed inducing diabetes intraperitoneally by administering streptozotocin (STZ) (i.p.). […] To determine the development of diabetes, the mice’s fasting blood glucose levels were evaluated 4 days following the injection of STZ. […]

A word on the viability: it is the share of living cells, or the viability signal relative to a control. A low value points to a greater loss of cells. The molecule `S=c1[nH]nc(Cn2c3ccccc3c3ccccc32)n1-c1ccc(Cl)cc1` [C5h, 5-((9H-Carbazol-9-yl)methyl)-4-(4-chlorophenyl)-2,4-dihydro-3H-1,2,4-triazole-3-thione] gave a viability at 24 h, 100 µM in series [1] of 65.3 to 85.3%.
Take `S=c1[nH]nc(Cn2c3ccccc3c3ccccc32)n1C1CC2CCC1C2` (stereo not drawn) [C5r, 5-((9H-Carbazol-9-yl)methyl)-4-(bicyclo[2.2.1]heptan-2-yl)-2,4-dihydro-3H-1,2,4-triazole-3-thione]: the viability at 24 h, 100 µM in series [1] is 64.5%.
With `S=c1[nH]nc(Cn2c3ccccc3c3ccccc32)n1C1CCCCC1` [C5m, 5-((9H-Carbazol-9-yl)methyl)-4-cyclohexyl-2,4-dihydro-3H-1,2,4-triazole-3-thione], in series [1], the viability at 24 h, 100 µM was in the range of 65.3 to 85.3%.
Consider `O=C(c1ccccc1)n1c(Cn2c3ccccc3c3ccccc32)n[nH]c1=S` [C5o, (3-((9H-Carbazol-9-yl)methyl)-5-thioxo-1,5-dihydro-4H-1,2,4-triazol-4-yl)(phenyl)methanone], for which, in series [1], the viability at 24 h, 100 µM is 36.5%. Further, the “lower cytotoxic activity compared to the positive control 5-FU” value in the series with LX-2 cells is listed as 3 fold.
Consider `COc1ccc(-n2c(Cn3c4ccccc4c4ccccc43)n[nH]c2=S)cc1` [C5f, 5-((9H-Carbazol-9-yl)methyl)-4-(4-methoxyphenyl)-2,4-dihydro-3H-1,2,4-triazole-3-thione], for which the “blood glucose level after five doses of C5f” value in series [2] (10 mg/kg i.p. daily for 5 days, 10 mg/kg) was 216.15 mg/dL and 216.15 ± 3.45 mg/dL. Also, the “blood glucose level before C5f treatment” value in series [2] (baseline after STZ induction) was 290.54 mg/dL and 290.54 ± 2.15 mg/dL. Further, in series [1], the viability at 24 h, 100 µM came out at 63.6%.
In series [1], `S=c1[nH]nc(Cn2c3ccccc3c3ccccc32)n1-c1ccc(Br)cc1` [C5g, 5-((9H-Carbazol-9-yl)methyl)-4-(4-bromophenyl)-2,4-dihydro-3H-1,2,4-triazole-3-thione] registered a viability at 24 h, 100 µM of 65.3 to 85.3%.
`O=c1[nH]cc(F)c(=O)[nH]1` [5-Fu, 5-Fluorouracil, reference compound] came in with a viability at 24 h, 100 µM in series [1] of 13.4%.
In series [1], `S=c1[nH]nc(Cn2c3ccccc3c3ccccc32)n1CCc1ccccc1` [C5s, 5-((9H-Carbazol-9-yl)methyl)-4-phenethyl-2,4-dihydro-3H-1,2,4-triazole-3-thione] came in with a viability at 24 h, 100 µM of 37.8%. Further, the “lower cytotoxic activity compared to the positive control 5-FU” value in the series with LX-2 cells worked out at 3 fold.
